The values below come from patent US12528784B2, “Alkynyl-(heteroaryl)-carboxamide HCN1 inhibitors” (Hoffmann-La Roche Inc., priority 2019, dated 2026).

Some results are limits rather than exact numbers.

What all share (format): cell-based
One assay deals with T1, HCN2 (Homo sapiens, UniProt Q9UL51).
T1 construct: expressed in transfected cells
T1 sequence (Q9UL51 1-889): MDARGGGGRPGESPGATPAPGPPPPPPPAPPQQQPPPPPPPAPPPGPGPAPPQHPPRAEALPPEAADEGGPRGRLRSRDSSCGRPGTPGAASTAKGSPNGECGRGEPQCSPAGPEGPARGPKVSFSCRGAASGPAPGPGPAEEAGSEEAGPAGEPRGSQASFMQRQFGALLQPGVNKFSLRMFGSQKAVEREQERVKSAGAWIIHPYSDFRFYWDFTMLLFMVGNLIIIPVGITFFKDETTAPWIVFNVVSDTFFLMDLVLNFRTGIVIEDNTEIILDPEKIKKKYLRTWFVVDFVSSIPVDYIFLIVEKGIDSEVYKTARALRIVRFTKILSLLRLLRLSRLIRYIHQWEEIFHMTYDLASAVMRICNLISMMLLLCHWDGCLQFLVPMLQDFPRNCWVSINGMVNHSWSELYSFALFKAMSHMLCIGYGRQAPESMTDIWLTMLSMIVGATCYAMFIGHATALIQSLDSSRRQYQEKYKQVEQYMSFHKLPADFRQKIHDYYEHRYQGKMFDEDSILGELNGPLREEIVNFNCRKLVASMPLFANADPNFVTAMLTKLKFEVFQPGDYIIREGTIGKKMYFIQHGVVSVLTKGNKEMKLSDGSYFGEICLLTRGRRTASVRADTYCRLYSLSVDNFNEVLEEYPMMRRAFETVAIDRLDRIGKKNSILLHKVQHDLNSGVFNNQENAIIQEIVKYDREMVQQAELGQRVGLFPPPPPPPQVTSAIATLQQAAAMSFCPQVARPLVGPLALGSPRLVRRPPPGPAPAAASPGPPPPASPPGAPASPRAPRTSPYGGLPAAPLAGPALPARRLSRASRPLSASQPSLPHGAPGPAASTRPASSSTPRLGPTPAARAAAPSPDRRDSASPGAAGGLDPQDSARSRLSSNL
The assay is described as follows: HCN2 automated patch clamp current inhibition assay (Ionworks Barracuda). Particulars: HEK-293 cells stably expressing HCN2; current inhibition during a hyperpolarizing pulse of -100 mV. Here is the method:
(§1) In vitro, high-throughput cellular electrophysiology was employed to detect voltage- and use-dependence of compounds in single concentration screening and IC50 determination for library and medicinal chemistry profiling compounds in 384 well plates.
(§2) Cell cultures were maintained in DMEM/F12 cell growth media containing FBS and appropriate antibiotics at 37° C., 5% CO2 for a maximum of 20 passages. At a time point of 40-72 hours prior to assay, the expression of HCN protein in the cells is induced by addition of tetracyclin. Cells may be incubated at 27° C. for 2-24 hours of induction. […] Cells were harvested at 80% confluency and resuspended in extracellular buffer and added to wells. A freshly prepared Escin solution was added to intracellular buffer and applied to establish whole cell recording via perforated patch clampling by APC.
(§3) Currents through activated channels were measured directly by APC by employing hyperpolarizing voltage steps. The activation window was increased and stabilized by the addition of cell permeable Br-cAMP. Baselines were established for both use- and voltage-dependence protocols using a −30 mV holding potential and multiple test pulses at −100 mV or by 20 mV steps from −120 to 0 mV, respectively. Test compounds were added after baseline recordings followed by a 10 min incubation, voltage-dependency protocol recording, and use-dependency recording. Data was corrected for baseline and rundown (well based) and normalized for % inhibition (plate based). Five previously reported HCN inhibitors of varying potencies and selectivities and zatebradine were used for run to run and plate to plate quality controls. […] Percent inhibition was analysed at −80, −100, −120 mV of the voltage-dependency protocol and at pulse 0 and 50 of the use-dependency protocols. Selectivity was assessed against HCN2, HCN3, and HCN4 overexpressing cell lines using similar methods. As HCN4 has a slower activation than the other HCN channels, activation was extended to achieve steady state activation.
For orientation: Patch clamp records ionic current or voltage across a cell membrane.

The target in the next assay is T2, HCN1 (Homo sapiens, UniProt O60741).
T2 construct: expressed in transfected cells
T2 sequence (O60741 1-890): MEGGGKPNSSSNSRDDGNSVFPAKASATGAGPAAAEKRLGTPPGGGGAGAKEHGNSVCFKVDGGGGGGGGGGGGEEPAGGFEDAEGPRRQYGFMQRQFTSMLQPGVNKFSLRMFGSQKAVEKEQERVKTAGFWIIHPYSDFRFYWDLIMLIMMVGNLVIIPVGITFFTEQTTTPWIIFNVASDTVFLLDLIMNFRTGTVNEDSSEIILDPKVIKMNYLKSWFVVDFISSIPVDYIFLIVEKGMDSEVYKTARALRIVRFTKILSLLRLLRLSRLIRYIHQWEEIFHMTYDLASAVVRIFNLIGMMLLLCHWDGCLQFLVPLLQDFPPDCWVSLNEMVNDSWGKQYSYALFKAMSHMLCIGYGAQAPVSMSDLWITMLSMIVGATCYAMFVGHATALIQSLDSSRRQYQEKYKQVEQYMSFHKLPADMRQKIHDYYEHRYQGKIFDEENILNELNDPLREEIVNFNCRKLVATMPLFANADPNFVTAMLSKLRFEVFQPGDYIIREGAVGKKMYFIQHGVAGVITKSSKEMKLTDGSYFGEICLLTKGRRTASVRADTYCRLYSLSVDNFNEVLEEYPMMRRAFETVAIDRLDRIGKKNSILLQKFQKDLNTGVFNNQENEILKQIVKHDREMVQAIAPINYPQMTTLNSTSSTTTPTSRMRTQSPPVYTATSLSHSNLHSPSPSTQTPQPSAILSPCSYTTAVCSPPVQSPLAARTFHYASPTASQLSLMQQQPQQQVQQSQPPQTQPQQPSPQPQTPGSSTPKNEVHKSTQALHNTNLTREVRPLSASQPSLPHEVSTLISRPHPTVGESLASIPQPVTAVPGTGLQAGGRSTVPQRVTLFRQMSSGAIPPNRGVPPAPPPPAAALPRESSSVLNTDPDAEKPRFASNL
The assay is described as follows: HCN1 automated patch clamp current inhibition assay (Ionworks Barracuda). Particulars: HEK-293 cells stably expressing HCN1; current inhibition during a hyperpolarizing pulse of -100 mV. Here is the method: as §1, §2, §3

For another assay, the target named is T3, HCN4 (Homo sapiens, UniProt Q9Y3Q4).
T3 construct: expressed in transfected cells
T3 sequence (Q9Y3Q4 1-1203): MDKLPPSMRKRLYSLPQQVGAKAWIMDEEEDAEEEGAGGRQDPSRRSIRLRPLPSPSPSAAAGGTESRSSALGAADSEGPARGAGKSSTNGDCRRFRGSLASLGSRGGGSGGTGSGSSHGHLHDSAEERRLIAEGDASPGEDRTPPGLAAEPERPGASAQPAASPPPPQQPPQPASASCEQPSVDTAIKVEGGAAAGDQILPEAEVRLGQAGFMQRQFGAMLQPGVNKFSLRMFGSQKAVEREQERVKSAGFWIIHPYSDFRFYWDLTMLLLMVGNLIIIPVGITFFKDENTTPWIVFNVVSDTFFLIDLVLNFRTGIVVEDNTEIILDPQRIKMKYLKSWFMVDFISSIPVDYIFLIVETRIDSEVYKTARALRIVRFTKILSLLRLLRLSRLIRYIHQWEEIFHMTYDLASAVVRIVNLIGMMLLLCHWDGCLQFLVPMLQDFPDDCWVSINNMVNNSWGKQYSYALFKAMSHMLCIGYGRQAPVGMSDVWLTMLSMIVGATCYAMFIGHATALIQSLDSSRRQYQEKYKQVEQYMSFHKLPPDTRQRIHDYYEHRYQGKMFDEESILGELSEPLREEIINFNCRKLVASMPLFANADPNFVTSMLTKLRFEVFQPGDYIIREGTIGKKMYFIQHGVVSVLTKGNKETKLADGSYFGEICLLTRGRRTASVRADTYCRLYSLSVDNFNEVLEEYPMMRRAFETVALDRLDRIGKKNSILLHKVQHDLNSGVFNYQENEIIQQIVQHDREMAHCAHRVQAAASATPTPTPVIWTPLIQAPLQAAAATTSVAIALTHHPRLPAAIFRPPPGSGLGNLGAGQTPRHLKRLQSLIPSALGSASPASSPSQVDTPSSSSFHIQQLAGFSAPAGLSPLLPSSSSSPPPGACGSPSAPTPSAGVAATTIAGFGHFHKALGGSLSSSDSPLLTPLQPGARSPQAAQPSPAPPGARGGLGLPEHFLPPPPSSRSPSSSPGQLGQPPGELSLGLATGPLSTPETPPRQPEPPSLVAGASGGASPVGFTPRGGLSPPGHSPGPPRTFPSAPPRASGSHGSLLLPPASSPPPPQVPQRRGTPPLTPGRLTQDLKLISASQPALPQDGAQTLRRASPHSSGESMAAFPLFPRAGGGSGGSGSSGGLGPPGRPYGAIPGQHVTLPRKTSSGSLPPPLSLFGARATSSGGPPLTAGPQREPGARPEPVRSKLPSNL
Briefly: HCN4 automated patch clamp current inhibition assay (Ionworks Barracuda). Particulars: HEK-293 cells stably expressing HCN4; current inhibition during a hyperpolarizing pulse of -100 mV. Here is the method: as §1, §2, §3

The IC50 is the concentration needed to halve the response being measured. Read a low IC50 as higher potency. Consider `Cc1ccc(-n2c(C(N)=O)nc(C#Cc3cc(Cl)ncc3F)c2C)cn1` [Example 7, 4-((2-Chloro-5-fluoropyridin-4-yl)ethynyl)-5-methyl-1-(6-methylpyridin-3-yl)-1H-imidazole-2-carboxamide], for which the half-inhibitory concentration (IC50) is above 40 µM against HCN2, 0.297 µM against HCN1 and above 40 µM on HCN4.

For the compound `Cc1ccc(-n2c(C(N)=O)nc(C#Cc3ccc(Cl)cc3)c2C)cn1` [Example 9, 4-[2-(4-Chlorophenyl)ethynyl]-5-methyl-1-(6-methyl-3-pyridyl)imidazole-2-carboxamide], the concentration for half-maximal inhibition (IC50) against HCN2 was above 40 µM; against HCN1, 0.518 µM; against HCN4, above 40 µM.

For `Cc1ccc(-n2c(C(N)=O)nc(C#Cc3ccnc(C(F)(F)F)c3)c2C)cn1` [Example 11, 5-Methyl-1-(6-methylpyridin-3-yl)-4-((2-(trifluoromethyl)pyridin-4-yl)ethynyl)-1H-imidazole-2-carboxamide], the IC50 at HCN2 was above 40 µM; against HCN1, 0.833 µM; against HCN4, above 40 µM.

In the case of `Cc1ccc(-n2c(C(N)=O)nc(C#Cc3ccnc(F)c3)c2C)cn1` [Example 12, 4-[2-(2-Fluoro-4-pyridyl)ethynyl]-5-methyl-1-(6-methyl-3-pyridyl)imidazole-2-carboxamide], the IC50 against HCN2 is above 40 µM; against HCN1, 1.01 µM; against HCN4, above 40 µM.

Regarding `Cc1ccc(-n2c(C(N)=O)nc(C#Cc3ccnc(Cl)n3)c2C)cn1` [Example 15, 4-((2-Chloropyrimidin-4-yl)ethynyl)-5-methyl-1-(6-methylpyridin-3-yl)-1H-imidazole-2-carboxamide], the half-inhibitory concentration (IC50) at HCN2 is above 40 µM; against HCN1 it was 2.39 µM; on HCN4 it was above 40 µM.

On to `Cc1ccc(-n2c(C(N)=O)nc(C#Cc3ccncc3F)c2C)cn1` [Example 16, 4-((3-Fluoropyridin-4-yl)ethynyl)-5-methyl-1-(6-methylpyridin-3-yl)-1H-imidazole-2-carboxamide], for which the IC50 against HCN2 is above 40 µM; against HCN1, 2.4 µM; against HCN4, above 40 µM.

Regarding `Cc1ccc(-n2c(C(N)=O)nc(C#Cc3cncc(Cl)c3)c2C)cn1` [Example 17, 4-[2-(5-Chloro-3-pyridyl)ethynyl]-5-methyl-1-(6-methyl-3-pyridyl)imidazole-2-carboxamide], the figures for the half-inhibitory concentration (IC50) against HCN2, against HCN1 and on HCN4 were above 40 µM, 3.02 µM and above 40 µM, respectively.

For `Cc1ccc(-n2c(C(N)=O)nc(C#Cc3cc(Cl)ncn3)c2C)cn1` [Example 19, 4-((6-Chloropyrimidin-4-yl)ethynyl)-5-methyl-1-(6-methylpyridin-3-yl)-1H-imidazole-2-carboxamide], the IC50 against HCN1 was 6.47 µM; against HCN4, above 40 µM.

As for `Cc1ccc(-n2c(C(N)=O)nc(C#Cc3cccnc3)c2C)cn1` [Example 20, 5-Methyl-1-(6-methyl-3-pyridyl)-4-[2-(3-pyridyl)ethynyl]imidazole-2-carboxamide], the results for the IC50 against HCN2, against HCN1 and against HCN4 were above 40 µM, 8.59 µM and above 40 µM, respectively.

As for `Cc1ccc(-n2c(C(N)=O)nc(C#Cc3ccnc(C)c3)c2C)cn1` [Example 22, 5-Methyl-1-(6-methylpyridin-3-yl)-4-((2-methylpyridin-4-yl)ethynyl)-1H-imidazole-2-carboxamide], the figures for the 50% inhibitory concentration (IC50) at HCN2, against HCN1 and on HCN4 were above 40 µM, 6.03 µM and above 40 µM, respectively.

`Cc1ccc(-n2c(C(N)=O)nc(C#Cc3ccnc(Cl)c3C)c2C)nn1` [Example 24, 4-[2-(2-Chloro-3-methyl-4-pyridyl)ethynyl]-5-methyl-1-(6-methylpyridazin-3-yl)imidazole-2-carboxamide]: the IC50 on HCN2 is above 40 µM; at HCN1 it was 0.15 µM; at HCN4 it was above 40 µM.

Turning to `Cc1c(Cl)cccc1C#Cc1nc(C(N)=O)n(-c2cccnc2)c1C` [Example 30, 4-[2-(3-Chloro-2-methyl-phenyl)ethynyl]-5-methyl-1-(3-pyridyl)imidazole-2-carboxamide], the values for the IC50 at HCN1 and at HCN4 were 0.087 µM and above 40 µM, respectively.
